Where two headings read alike, the source gives them in different places.

Consider eleven compounds from PMC5565192, “Larrea tridentata: A novel source for anti-parasitic agents active against Entamoeba histolytica, Giardia lamblia and Naegleria fowleri” (PLoS Neglected Tropical Diseases, 2017).

The test system of experiment [1] is G. lamblia WB trophozoites. In words: Parasite assay, CellTiter-Glo EC50 dose response, G. lamblia trophozoites. Type of experiment: cell-based, Giardia lamblia. Conditions: for loss of activity compared to 3, G. lamblia: SAR comparison with compound 3. As for the experimental part:
(§1) Trophozoites of E. histolytica HM1: IMSS and G. lamblia WB strains were axenically maintained in TYI-S-33 medium supplemented with penicillin (100 U/ml), streptomycin (100 μg/ml). Trophozoites of N. fowleri strain KUL were axenically cultured in Nelson’s medium supplemented with 10% FBS at 37°C [45]. All experiments were performed using trophozoites harvested during the logarithmic phase of growth. Four solvent partitioned fractions of an aqueous methanolic extract of L. tridentata and compounds 1–9 were screened for activity against E. histolytica, G. lamblia, and N. fowleri. For primary screening, the positive control for E. histolytica and G. lamblia was 5 μg/mL of metronidazole (Sigma-Aldrich) and 46 μg/mL of amphotericin B for N. fowleri (Sigma-Aldrich). Test samples were diluted to 10 mg/mL of extracts, HPLC fractions, and pure compounds in DMSO. Finally, 0.5 μL of diluted sample was transferred to white, solid bottom tissue culture 96-well plates (E&K Scientific) followed by addition of 99.5 μL trophozoites (5,000 E. histolytica and G. lamblia, and 10,000 N. fowleri) in TYI-S-33 medium or Nelson’s medium. The final concentration for test compounds was 50 μg/mL and 0.5% DMSO, which was the negative control and compound vehicle that we have shown has no effect the growth rate of trophozoites. Assay plates were incubated for 48 h at 37°C. E. histolytica and G. lamblia plates were kept in the GasPak EZ Anaerobe Gas Generating Pouch System (VWR) to maintain anaerobic condition throughout the incubation period. Screening was performed in duplicate using the CellTiter-Glo assay (Promega) and luminescence was measured using an EnVision plate reader (PerkinElmer).
(§2) The antiparasitic activity of 1–6 and 9 were confirmed by EC50 dose response experiments, using the CellTiter-Glo assay, conducted in triplicate over a concentration range from 5-to-700 μM against trophozoites (Table 3). Miltefosine and metronidazole, current drugs for the treatment of PAM and amebiasis and giardiasis were also tested in triplicate as positive controls for EC50 determination (Table 3). Dose response curves including standard deviation (SD) calculation were processed using GraphPad Prism software 5.0. Percent inhibition relative to maximum and minimum reference signal controls was calculated using the formula: % Inhibition = [(mean of Maximum Signal Reference Control—Experimental Value)/(mean of Maximum Signal Reference Control—mean of Minimum Signal Reference Control)] × 100.

The test system of experiment [2] is E. histolytica HM1: IMSS trophozoites. In words: Parasite assay, CellTiter-Glo EC50 dose response, E. histolytica trophozoites. In kind it is cell-based, Entamoeba histolytica. Conditions: for EC50: 48 h. As for the experimental part: as §1, §2
On the technique in general: ATP-based viability assays read luminescence as a measure of living cells.

For experiment [3], the system named is N. fowleri strain KUL trophozoites. In words: Parasite assay, CellTiter-Glo EC50 dose response, N. fowleri trophozoites. In kind it is cell-based, Naegleria fowleri. The method, then:
as §1, §2

In experiment [4] the test system is E. histolytica, G. lamblia, and N. fowleri trophozoites. The experiment is described as follows: Antiparasitic activity, statements for all three pathogens together (CellTiter-Glo). Type of experiment: cell-based. To be noted: for antiparasitic activity against the three pathogens (in words): E. histolytica, N. fowleri trophozoites. The method, then: as §1, §2

The next experiment concerns HUVEC-TERT2 cell line. The experiment is described as follows: HUVEC cell cytotoxicity (CellTiter-Glo, 48 h). Type of experiment: cell-based, human. Conditions: for fold less toxic to human cells compared to N. fowleri: HUVEC EC50 versus N. fowleri EC50, P<0.0001; for EC50: Homo sapiens, HUVEC, 48 h, CellTiter-Glo, read-out: EC50 inhibition of HUVEC cell viability. The method, then:
The HUVEC-TERT2 cell line was purchased from Evercyte GmbH (Vienna, Austria) and cultured and maintained in endothelial cell basal medium (Lonza) as described previously. Briefly, cells were seeded into a white 384-well solid bottom plate (Nunc, ThermoFisher) at a density of 1000 cells/well in 39 μL of media using a Janus liquid handler (PerkinElmer). Serial dilutions using 1 μL of compound 1 and 2 at varying concentrations were dispensed into each well in triplicate. After 48 h incubation, 40 μL of CellTiter-Glo reagent (Promega) was added into each well. The contents were mixed for 2 min on a microplate shaker to induce cell lysis and further incubated at room temperature for 10 min to stabilize the luminescent signal. Luminescence was measured with an EnVision plate reader (PerkinElmer) and %inhibition calculations were performed using the following formula for single-point normalization: %Inhibition = (1-Raw Sample Value/Mean of DMSO Signal Reference Value) × 100. Dose response curves including EC50 calculations were processed using GraphPad Prism software.

Experiment [5] concerns N. fowleri cysteine protease. In words: Cysteine protease activity assay in N. fowleri crude lysate (Z-Phe-Arg-AMC). In kind it is biochemical, Naegleria fowleri. Conditions: at 1.875 μM, total crude lysate of N. fowleri. As for the experimental part: To prepare the cell lysate, N. fowleri trophozoites were removed from the culture flask surface by incubating in an ice bath for 10 min, centrifuged at 300 g for 10 min, and washed twice with PBS (pH 7.2). The cells were disrupted by four cycles of freeze thawing in PBS [51]. Protein concentration was quantified by the method of Bradford (Bio-Rad). The activity of the cysteine protease present in the crude extract after incubating in presence and absence of different concentrations of compounds 1 and 2 was assayed by the liberation of the fluorescent leaving group, 7-amino-4-methyl coumarin (AMC), from the peptide substrate Z–Phe–Arg–AMC (40 μM) (where Z is benzyloxycarbonyl, R&D Systems). The assay was performed at 25°C in an automated microtiter plate spectrofluorometer (EnVision, PerkinElmer) with excitation wavelength at 355 nm and emission wavelength at 460 nm. Enzyme samples were added to the reactivation buffer (10 mM Tris, 5 mM EDTA, 50 mM NaCl, pH 7.4, 10 mM DTT), and preincubated for 20 min at 37°C prior to the hydrolysis of substrate. The rate of substrate hydrolysis at ambient temperature was determined from the rate of increase of fluorescence, monitored on a continuously recording spectrofluorometer and measured as RFU/min/μg protein.

Where [6] appears, read: Giardia duodenalis, trophozoites, 48 h, minimum n = 3, read-out: G. lamblia EC50.
The mark [7] stands for this setting: Giardia duodenalis, trophozoites, 48 h, minimum n = 3, read-out: G. lamblia pEC50 ± SE (converted).
Setting [8] is: Entamoeba histolytica, trophozoites, minimum n = 3, read-out: E. histolytica EC50.
[9] abbreviates: Entamoeba histolytica, trophozoites, minimum n = 3, read-out: E. histolytica pEC50 ± SE (converted).
Where [10] appears, read: Naegleria fowleri, 48 h, trophozoites, 48 h, minimum n = 3, read-out: N. fowleri EC50.
[11] abbreviates: Naegleria fowleri, 48 h, trophozoites, 48 h, minimum n = 3, read-out: N. fowleri pEC50 ± SE (converted).
Setting [12] is: Giardia duodenalis, 48 h, read-out: G. lamblia EC50.
[13] abbreviates: Entamoeba histolytica, read-out: E. histolytica EC50.
The mark [14] stands for this setting: Naegleria fowleri, 48 h, read-out: N. fowleri EC50.
Where [15] appears, read: trophozoites, 48 h, minimum n = 3, read-out: N. fowleri EC50.
The mark [16] stands for this setting: trophozoites, 48 h, minimum n = 3.

Turning to `COc1cc([C@@H]2c3cc(O)c(O)cc3C[C@@H](C)[C@H]2C)ccc1O` [Compound 4, Nor-isoguaicin], the EC50 is 74 µM in experiment [1] (setting [6]); 79.4 µM in experiment [1] (setting [7]); 83 µM in experiment [2] (setting [8]); 79.4 µM in experiment [2] (setting [9]); 75 µM in experiment [3] (setting [10]); 79.4 µM in experiment [3] (setting [11]). Also, the EC50 in experiment [4] (span over E. histolytica, N. fowleri, read-out: EC50 values against all three pathogens) was in the range of 74 to 83 µM. For the same compound, the “loss of activity compared to 3, G. lamblia” value in experiment [1] is given as ~ 2 fold.

Turning to `C[C@H]1[C@H](c2ccc(O)cc2)c2cc(O)c(O)cc2C[C@H]1C` [Compound 3, Nor-3’-demethoxyisoguaiacin], the EC50 in experiment [1] (setting [6]) is 49 µM; in experiment [1] (setting [7]) it was 50.1 µM; in experiment [2] (setting [8]) it was 94 µM; in experiment [2] (setting [9]), 100 µM; in experiment [3] (setting [10]) it was 73 µM; in experiment [3] (setting [11]) it was 79.4 µM.

As for `COc1cc(C[C@@H](C)[C@@H](C)Cc2ccc(O)c(O)c2)ccc1O` [Compound 2, 3’-O-methylnordihydroguairetic acid], the “fold less toxic to human cells compared to N. fowleri” value in the experiment with HUVEC-TERT2 cell line stood at 1.6 fold. Moreover, the EC50 in the experiment with HUVEC-TERT2 cell line was 59 µM; in experiment [1] (setting [6]) it was 38 µM; in experiment [1] (setting [7]) it was 39.8 µM; in experiment [2] (setting [8]) it was 171 µM; in experiment [2] (setting [9]), 158 µM; in experiment [3] (setting [10]) it was 38 µM. The EC50 in experiment [3] (setting [11]) is 39.8 µM. Further, the “inhibition of cysteine protease activity” value in experiment [5] is around 50%.

On to `C[C@H]1[C@H](c2ccc(O)c(O)c2)c2cc(O)c(O)cc2C[C@H]1C` [Compound 6, 6,3'-Di-O-demethylisoguaiacin], for which the EC50 was 96 µM in experiment [1] (setting [6]); 100 µM in experiment [1] (setting [7]); 146 µM in experiment [2] (setting [8]); 158 µM in experiment [2] (setting [9]); 150 µM in experiment [3] (setting [10]); 158 µM in experiment [3] (setting [11]). The “antiparasitic activity against the three pathogens (in words)” value (“antiparasitic activity” for short) in experiment [4] was “comparatively weak activity”.

Regarding `C[C@@H]1[C@H](C)[C@H](c2ccc(O)cc2)O[C@H]1c1ccc(O)c(O)c1` [Compound 8, (7R, 7’R)-7, 7’-bis(4’, 3,4-trihydroxyphenyl)-(8R, 8’S)-8, 8’-dimethyltetrahydrofuran], the EC50 in experiment [1] (setting [12]), in experiment [2] (setting [13]) and in experiment [3] (setting [14]) was above 166 µM each time. In addition, in experiment [4], the “antiparasitic activity” value was “no antiparasitic activity”.

Regarding `C[C@@H]1[C@@H](C)[C@H](c2ccc(O)c(O)c2)O[C@H]1c1ccc(O)cc1` [Compound 7, 3-hydroxy-4-epi-larreatricin], the EC50 in experiment [1] (setting [12]), in experiment [2] (setting [13]) and in experiment [3] (setting [14]) was above 166 µM in each case. The “antiparasitic activity” value in experiment [4] is reported as “no antiparasitic activity”.

Consider `C[C@H](Cc1ccc(O)c(O)c1)[C@@H](C)Cc1ccc(O)c(O)c1` [Compound 1, nordihydroguairetic acid], for which the “fold less toxic to human cells compared to N. fowleri” value in the experiment on HUVEC-TERT2 cell line is listed as 2.4 fold. In addition, the EC50 with HUVEC-TERT2 cell line is 86 µM; in experiment [1] (setting [6]), 36 µM; in experiment [1] (setting [7]), 39.8 µM; in experiment [2] (setting [8]) it was 103 µM; in experiment [2] (setting [9]) it was 100 µM; in experiment [3] (setting [10]) it was 36 µM. The EC50 in experiment [3] (setting [11]) is 39.8 µM; in experiment [3] (setting [15]), 37 µM. For the same compound, the “inhibition of cysteine protease activity” value in experiment [5] is listed as around 50%.

For `Cc1ncc([N+](=O)[O-])n1CCO` [Metronidazole, reference compound], the EC50 in experiment [1] (setting [6]) is 6.4 µM; in experiment [1] (setting [7]), 6.31 µM; in experiment [2] (setting [8]) it was 5 µM; in experiment [2] (setting [9]) it was 5.01 µM.

For the compound `COc1cc2c(cc1O)C[C@@H](C)[C@@H](C)[C@@H]2c1ccc(O)cc1` [Compound 5, 3’-Demethoxyisoguaiacin], the EC50 was 188 µM in experiment [1] (setting [6]); 200 µM in experiment [1] (setting [7]); 236 µM in experiment [2] (setting [8]); 251 µM in experiment [2] (setting [9]); 155 µM in experiment [3] (setting [10]); 158 µM in experiment [3] (setting [11]). The “loss of activity compared to 3, G. lamblia” value in experiment [1] turned out to be 4 fold. The “loss of activity compared to 3, E. histolytica” value in experiment [2] (SAR comparison with compound 3) was ~ 3 fold. Moreover, in experiment [3] (SAR comparison with compound 3), the “loss of activity compared to 3, N. fowleri” value is reported as ~ 2 fold. Moreover, the “antiparasitic activity” value in experiment [4] is listed as “comparatively weak activity”.

Regarding `CCCCCCCCCCCCCCCCOP(=O)([O-])OCC[N+](C)(C)C` [Miltefosine, reference compound], the EC50 in experiment [3] (setting [10]) is 54.5 µM; in experiment [3] (setting [11]), 50.1 µM.

Turning to “3-Methoxy-6, 7, 4’-trihydroxyflavonol [Compound 9]”, the “G. lamblia pEC50 ± SE” value in experiment [1] (setting [16]) was determined as 3.8 ± 0.02. For the same compound, the EC50 in experiment [1] (trophozoites, 48 h, minimum n = 3, read-out: G. lamblia EC50) is 153 µM; in experiment [2] (trophozoites, minimum n = 3, read-out: E. histolytica EC50) it was above 166 µM; in experiment [3] (setting [15]), 235 µM. In addition, the “N. fowleri pEC50 ± SE” value in experiment [3] (setting [16]) came out at 3.6 ± 0.02.
